Experiments:
[1] = system: hormone-receptor (+) breast cancer; details: cited from earlier work
[2] = system: hormone-receptor (+) breast cancer; experiment: NSABP B-42 randomized, double-blinded, placebo-controlled trial of extended adjuvant letrozole, analysed by MammaPrint risk group; format: in vivo, human; details: for HR, DFS: B-42 primary endpoint; for 10-year rate (%), letrozole arm (DFS rows: disease-free survival rate; DR/BCFI rows: event rate) / # Events (Letrozole): letrozole arm; for Abs. benefit (%): 10-year
From the text: NSABP B42 (Mamounas et al., 2019. Lancet Oncol 20: 88-99) refers to a randomized, double-blinded, placebo-controlled clinical trial of extended adjuvant endocrine therapy (tx) with letrozole (L) in postmenopausal women with hormone-receptor (+) breast cancer (BC) who have completed previous adjuvant tx with an aromatase inhibitor (AI). A pre-treatment gene expression biomarker such as MammaPrint may identify breast cancers at risk of recurrence in years 5 to 10 after diagnosis, for whom EET will be beneficial.
The MammaPrint test uses the expression levels of 70 genes to assess a patient's risk of recurrence. For the primary analysis, patient tumor samples were classified into a High Risk or Low Risk group by the 0.00 threshold in the MammaPrint index (high up to and low above 0.00 index, respectively). Recently, a subgroup of ultralow tumors is defined by MammaPrint index>+0.355 (Esserman et al., 2017. JAMA Oncol 3: 1503-1510).
Population for all analyses was based on the intention-to-treat (ITT) principle: patients were analyzed according to their randomized treatment, regardless of what they actually receive. This ensures the strengths of randomization are kept (an equal balance of potential prognostic factors between both groups), but it estimates the treatment effect in clinical practice.
Within the total study population and within each treatment arm, univariate Cox Regression Analysis were performed for MammaPrint risk groups and all available clinical, pathological, therapeutic variables. Summary statistics from the Cox model included the number of patients analyzed, hazard ratio (with 95% confidence interval (CI)) of the comparison and the according p-value. A p-value less than 0.05 (two sided) was considered statistically significance.
Differences in primary and secondary endpoints between placebo and letrozole groups were assessed by stratified log-rank tests. Stratification factors included original stratification factors from the parent B-42 trial, i.e., pathological node status at diagnosis (negative vs positive), prior tamoxifen use (no vs yes), and lowest bone mineral density T score in the lumbosacral spine, total hip, or femoral neck (≤−2.0 or >−2.0 SD).
Multivariate Cox Regression Analysis were utilized to examine the interaction between EET treatment and MP Risk index. Secondary elaborated multivariate analyses were performed to examine interaction with MammaPrint, EET treatment and any clinical and pathologic variable. Summary statistics from these Cox models include the number of patients analyzed, hazard ratios (with 95% CI) of the comparisons and the according p-values.
The following event variables were used for appropriate analyses: • Distant Recurrence (DR): yes vs. no • Time to DR: continuous months • Overall Survival (OS): yes vs. no • Time to Death: continuous months • Disease Free Survival (DFS): yes vs. no • Time to DFS: continuous months • Breast Cancer Free Interval (BCFI): yes vs. no • Time to BCFI: continuous months
A Kaplan-Meier curve with corresponding Log-rank test was used to visualize the survival distribution function for each MammaPrint risk group. Cox PH models stratified by nodal status, prior tamoxifen use, and lowest bone mineral density T-score was used to explore the association among risk factors listed to survival outcomes. This was done for each treatment arm. Kaplan-Meier curves were also used to visualize the survival distribution function for each treatment group.
NSABP-B42 assessed the effect of 5 years of letrozole after 5 years of prior endocrine therapy in postmenopausal women with early stage hormone receptor positive (HR+) breast cancer. Randomization occurred five years after diagnosis.
There were 3,966 patients randomly assigned to placebo or letrozole. Among them, 63 were excluded due to either no clinical assessment or not being at risk for the primary DFS endpoint for the B-42 parent trial. Blocks were available for 2,339 patients who consented for future research. […]

[3] = system: early-stage ER positive breast cancer; details: tamoxifen for five years; during the treatment period; cited from earlier work
[4] = BCFI, MP Risk Group H, letrozole vs placebo
[5] = BCFI, MP Risk Group L, letrozole vs placebo
[6] = BCFI, MP Risk Group LNUL, letrozole vs placebo
[7] = BCFI, MP Risk Group UL, letrozole vs placebo
[8] = DFS, MP Risk Group H, letrozole vs placebo
[9] = DFS, MP Risk Group L, letrozole vs placebo
[10] = DFS, MP Risk Group LNUL, letrozole vs placebo
[11] = DFS, MP Risk Group UL, letrozole vs placebo
[12] = DR, MP Risk Group H, letrozole vs placebo
[13] = DR, MP Risk Group L, letrozole vs placebo
[14] = DR, MP Risk Group LNUL, letrozole vs placebo
[15] = DR, MP Risk Group UL, letrozole vs placebo
[16] = all patients of the translational MP cohort, letrozole vs placebo

## N#Cc1ccc(C(c2ccc(C#N)cc2)n2cncn2)cc1 [Letrozole, letrozole]
[1]; NSABP B42, extended letrozole therapy compared to the placebo group (Mamounas et al., 2019)
  prolongation of disease-free survival (DFS): no statistically significant prolongation
[1]; NSABP B42, extended letrozole vs placebo (Mamounas et al., 2019)
  reduction in distant recurrence (DR) in the letrozole arm: 28%
[2]; 6.9 years of median follow-up
  HR, DFS: 0.85
[2]; updated results, 10.3 years of median follow-up
  HR, DFS: 0.85
[2]; B-42 secondary endpoint
  reduction of distant recurrence (DR) in the letrozole arm: 28%
[2]; BCFI, MP Risk Group H
  10-year rate (%), letrozole arm (DFS rows: disease-free survival rate; DR/BCFI rows: event rate): 14.6%
  # Events (Letrozole): 42
[2]; [4]
  HR (95% CI): 1.15
  Abs. benefit (%): −3.0%
[2]; BCFI, MP Risk Group H, letrozole vs placebo, listed as letrozole
  HR (95% CI): 1.15 (0.74, 1.79)
[2]; BCFI, MP Risk Group L
  10-year rate (%), letrozole arm (DFS rows: disease-free survival rate; DR/BCFI rows: event rate): 8.4%
  # Events (Letrozole): 44
[2]; [5]
  HR (95% CI): 0.51
  Abs. benefit (%): 7.0%
[2]; BCFI, MP Risk Group L, letrozole vs placebo, listed as letrozole
  HR (95% CI): 0.51 (0.35, 0.74)
[2]; BCFI, MP Risk Group LNUL
  10-year rate (%), letrozole arm (DFS rows: disease-free survival rate; DR/BCFI rows: event rate): 8.7%
  # Events (Letrozole): 36
[2]; [6]
  HR (95% CI): 0.48
  Abs. benefit (%): 7.9%
[2]; BCFI, MP Risk Group LNUL, letrozole vs placebo, listed as letrozole
  HR (95% CI): 0.48 (0.32-0.73)
[2]; BCFI, MP Risk Group UL
  10-year rate (%), letrozole arm (DFS rows: disease-free survival rate; DR/BCFI rows: event rate): 7.3%
  # Events (Letrozole): 8
[2]; [7]
  HR (95% CI): 0.67
  Abs. benefit (%): 4.1%
[2]; BCFI, MP Risk Group UL, letrozole vs placebo, listed as letrozole
  HR (95% CI): 0.67 (0.28, 1.65)
[2]; DFS, MP Risk Group H
  10-year rate (%), letrozole arm (DFS rows: disease-free survival rate; DR/BCFI rows: event rate): 71.2%
  # Events (Letrozole): 91
[2]; [8]
  HR (95% CI): 1.10
  Abs. benefit (%): −1.6%
[2]; DFS, MP Risk Group H, letrozole vs placebo, listed as letrozole
  HR (95% CI): 1.10 (0.82, 1.47)
[2]; DFS, MP Risk Group L
  10-year rate (%), letrozole arm (DFS rows: disease-free survival rate; DR/BCFI rows: event rate): 79.7%
  # Events (Letrozole): 113
[2]; [9]
  HR (95% CI): 0.67
  Abs. benefit (%): 7.8%
[2]; DFS, MP Risk Group L, letrozole vs placebo, listed as letrozole
  HR (95% CI): 0.67 (0.52, 0.85)
[2]; DFS, MP Risk Group LNUL
  10-year rate (%), letrozole arm (DFS rows: disease-free survival rate; DR/BCFI rows: event rate): 78.9%
  # Events (Letrozole): 93
[2]; [10]
  HR (95% CI): 0.64
  Abs. benefit (%): 9.5%
[2]; DFS, MP Risk Group LNUL, letrozole vs placebo, listed as letrozole
  HR (95% CI): 0.64 (0.49, 0.83)
[2]; DFS, MP Risk Group UL
  10-year rate (%), letrozole arm (DFS rows: disease-free survival rate; DR/BCFI rows: event rate): 82.5%
  # Events (Letrozole): 20
[2]; [11]
  HR (95% CI): 0.82
  Abs. benefit (%): 1.8%
[2]; DFS, MP Risk Group UL, letrozole vs placebo, listed as letrozole
  HR (95% CI): 0.82 (0.45, 1.48)
[2]; DR, MP Risk Group H
  10-year rate (%), letrozole arm (DFS rows: disease-free survival rate; DR/BCFI rows: event rate): 4.9%
  # Events (Letrozole): 15
[2]; [12]
  HR (95% CI): 0.65
  Abs. benefit (%): 2.4%
[2]; DR, MP Risk Group H, letrozole vs placebo, listed as letrozole
  HR (95% CI): 0.65 (0.34, 1.24)
[2]; DR, MP Risk Group L
  10-year rate (%), letrozole arm (DFS rows: disease-free survival rate; DR/BCFI rows: event rate): 3.5%
  # Events (Letrozole): 20
[2]; [13]
  HR (95% CI): 0.43
  Abs. benefit (%): 3.7%
[2]; DR, MP Risk Group L, letrozole vs placebo, listed as letrozole
  HR (95% CI): 0.43 (0.25, 0.74)
[2]; DR, MP Risk Group LNUL
  10-year rate (%), letrozole arm (DFS rows: disease-free survival rate; DR/BCFI rows: event rate): 3.6%
  # Events (Letrozole): 17
[2]; [14]
  HR (95% CI): 0.42
  Abs. benefit (%): 4.0%
[2]; DR, MP Risk Group LNUL, letrozole vs placebo, listed as letrozole
  HR (95% CI): 0.42 (0.23, 0.76)
[2]; DR, MP Risk Group UL
  10-year rate (%), letrozole arm (DFS rows: disease-free survival rate; DR/BCFI rows: event rate): 2.9%
  # Events (Letrozole): 3
[2]; [15]
  HR (95% CI): 0.53
  Abs. benefit (%): 3.0%
[2]; DR, MP Risk Group UL, letrozole vs placebo, listed as letrozole
  HR (95% CI): 0.53 (0.13, 2.15)
[2]; Excluded B-42 cohort, letrozole vs placebo
  HR, rate of DR: 0.92
[2]; MP-H subgroup, after 5.2 years (time-dependent analysis)
  HR, BCFI: 2.77
[2]; MP-H subgroup, prior to 5.2 years (time-dependent analysis)
  HR, BCFI: 0.65
[2]; MP-L subgroup, after 5.2 years (time-dependent analysis)
  HR, BCFI: 0.37
[2]; MP-L subgroup, prior to 5.2 years (time-dependent analysis)
  HR, BCFI: 0.65
[2]; [16]
  HR, breast cancer-free interval: 0.70 (0.53, 0.93)
  HR, disease-free survival: 0.81 (0.68, 0.98)

## CC/C(=C(\c1ccccc1)c1ccc(OCCN(C)C)cc1)c1ccccc1 [tamoxifen]
[3]
  reduction of recurrence rate compared to placebo: 50%
